Assay results: ChEMBL document CHEMBL4346729, “The discovery of novel 3-aryl-indazole derivatives as peripherally restricted pan-Trk inhibitors for the treatment of pain” (Bioorg Med Chem Lett, 2019)

Legend:
[1] = Intrinsic clearance in human liver microsomes; format: ADME, Microsome; conditions: read-out: CLH
[2] = Protein binding in Sprague-Dawley rat brain; format: ADME, tissue-based; conditions: read-out: PB (converted)
[3] = Unbound drug level in brain of CFA induced Sprague-Dawley rat at 0.8 mg/kg, po after 1 hr; format: ADME, organism-based; conditions: in vivo, BLD = below limit of detection
[4] = system: Rattus norvegicus; test: Unbound drug level in plasma of CFA induced Sprague-Dawley rat at 20 mg/kg, po after 1 hr; format: ADME, organism-based; conditions: in vivo
[5] = Unbound drug level in brain of CFA induced Sprague-Dawley rat at 20 mg/kg, po after 1 hr; format: ADME, organism-based; conditions: in vivo
[6] = biological target: Tyrosine-protein kinase ABL1 (Homo sapiens) (UniProt P00519); test: Inhibition of recombinant human N-terminal GST/His6-tagged ABL1 wt internal (P118 to S535) expressed in Sf9 insect cells at 20 nM using phosphatidylserine as substrate incubated for 60 mins in presence of [33P]-ATP by scintillation counting method
[7] = biological target: 5'-AMP-activated protein kinase catalytic subunit alpha-1 (Homo sapiens) (UniProt Q13131); test: Inhibition of recombinant human full length N-terminal GST/His6-tagged AMPKalpha1 (M1 to Q550) expressed in Sf9 insect cells at 20 nM using phosphatidylserine as substrate incubated for 60 mins in presence of [33P]-ATP by scintillation counting method
[8] = biological target: Tyrosine-protein kinase BTK (Homo sapiens) (UniProt Q06187); test: Inhibition of recombinant human full length N-terminal GST/His6-tagged BTK (M1 to S659) expressed in Sf9 insect cells at 20 nM using phosphatidylserine as substrate incubated for 60 mins in presence of [33P]-ATP by scintillation counting method
[9] = biological target: Cyclin-dependent kinase 2/cyclin E1 (Homo sapiens) (UniProt P24864+P24941); test: Inhibition of CDK2/Cyclin-E1 (unknown origin) at 20 nM using Phosphatidylserine as substrate incubated for 60 mins in presence of [33P]-ATP by scintillation counting method; format: protein-complex assay
[10] = biological target: Serine/threonine-protein kinase Chk2 (Homo sapiens) (UniProt O96017); test: Inhibition of CHK2 (unknown origin) at 20 nM using phosphatidylserine as substrate incubated for 60 mins in presence of [33P]-ATP by scintillation counting method
[11] = biological target: Mitogen-activated protein kinase 3 (Homo sapiens) (UniProt P27361); test: Inhibition of recombinant human full length N-terminal GST/His6-tagged ERK1 (M1 to P379) expressed in Escherichia coli at 20 nM using phosphatidylserine as substrate incubated for 60 mins in presence of [33P]-ATP by scintillation counting method
[12] = biological target: Inhibitor of nuclear factor kappa-B kinase subunit beta (Homo sapiens) (UniProt O14920); test: Inhibition of recombinant human full length N-terminal GST/His6-tagged IKK-beta (M1 to S756) expressed in Sf9 insect cells at 20 nM using phosphatidylserine as substrate incubated for 60 mins in presence of [33P]-ATP by scintillation counting method
[13] = biological target: Insulin receptor (Homo sapiens) (UniProt P06213); test: Inhibition of recombinant human N-terminal GST/His6-tagged INS-R C-terminal (G989 to S1382) expressed in Sf9 insect cells at 20 nM using phosphatidylserine as substrate incubated for 60 mins in presence of [33P]-ATP by scintillation counting method
[14] = biological target: Tyrosine-protein kinase Lyn (Homo sapiens) (UniProt P07948); test: Inhibition of recombinant human full length N-terminal GST/His6-tagged LYN (M1 to P512) expressed in Sf9 insect cells at 20 nM using phosphatidylserine as substrate incubated for 60 mins in presence of [33P]-ATP by scintillation counting method
[15] = biological target: Serine/threonine-protein kinase MARK1 (Homo sapiens) (UniProt Q9P0L2); test: Inhibition of recombinant human full length N-terminal GST/His6-tagged MARK1 (M1 to L780) expressed in Sf9 insect cells at 20 nM using phosphatidylserine as substrate incubated for 60 mins in presence of [33P]-ATP by scintillation counting method
[16] = biological target: Serine/threonine-protein kinase 3 (Homo sapiens) (UniProt Q13188); test: Inhibition of recombinant human full length MST2 (M1 to F491) expressed in Sf9 insect cells at 20 nM using phosphatidylserine as substrate incubated for 60 mins in presence of [33P]-ATP by scintillation counting method
[17] = biological target: Mitogen-activated protein kinase 14 (Homo sapiens) (UniProt Q16539); test: Inhibition of recombinant human full length p38-alpha (M1 to S360) expressed in Escherichia coli at 20 nM using phosphatidylserine as substrate incubated for 60 mins in presence of [33P]-ATP by scintillation counting method
[18] = species: Homo sapiens; test: Inhibition of PKA (unknown origin) at 20 nM using phosphatidylserine as substrate incubated for 60 mins in presence of [33P]-ATP by scintillation counting method
[19] = biological target: Protein kinase C beta type (Homo sapiens) (UniProt P05771); test: Inhibition of recombinant human full length N-terminal GST/His6-tagged PKC-beta2 (M1 to S673) expressed in Sf9 insect cells at 20 nM using phosphatidylserine as substrate incubated for 60 mins in presence of [33P]-ATP by scintillation counting method
[20] = biological target: Rho-associated protein kinase 2 (Homo sapiens) (UniProt O75116); test: Inhibition of recombinant human N-terminal GST/His6-tagged ROCK2 internal (P6 to S553) expressed in baculovirus infected Sf9 insect cells at 20 nM using phosphatidylserine as substrate incubated for 60 mins in presence of [33P]-ATP by scintillation counting method
[21] = biological target: Ribosomal protein S6 kinase alpha-1 (Homo sapiens) (UniProt Q15418); test: Inhibition of RPS6KA1 (unknown origin) at 20 nM using phosphatidylserine as substrate incubated for 60 mins in presence of [33P]-ATP by scintillation counting method
[22] = biological target: Ribosomal protein S6 kinase beta-1 (Homo sapiens) (UniProt P23443); test: Inhibition of recombinant human N-terminal GST/His6-tagged S6K internal ([…]) expressed in Sf9 insect cells at 20 nM using phosphatidylserine as substrate incubated for 60 mins in presence of [33P]-ATP by scintillation counting method
[23] = biological target: Serine/threonine-protein kinase Sgk1 (Homo sapiens) (UniProt O00141); test: Inhibition of recombinant human full length N-terminal GST and C-terminal His6-tagged SGK1 (M1 to L431) expressed in Sf9 insect cells at 20 nM using phosphatidylserine as substrate incubated for 60 mins in presence of [33P]-ATP by scintillation counting method
[24] = biological target: Tyrosine-protein kinase SYK (Homo sapiens) (UniProt P43405); test: Inhibition of recombinant human full length N-terminal GST and C-terminal His6-tagged SYK (M1 to N635) expressed in Sf9 insect cells at 20 nM using phosphatidylserine as substrate incubated for 60 mins in presence of [33P]-ATP by scintillation counting method

Sequence of Serine/threonine-protein kinase Sgk1 (Homo sapiens) (O00141 whole entry): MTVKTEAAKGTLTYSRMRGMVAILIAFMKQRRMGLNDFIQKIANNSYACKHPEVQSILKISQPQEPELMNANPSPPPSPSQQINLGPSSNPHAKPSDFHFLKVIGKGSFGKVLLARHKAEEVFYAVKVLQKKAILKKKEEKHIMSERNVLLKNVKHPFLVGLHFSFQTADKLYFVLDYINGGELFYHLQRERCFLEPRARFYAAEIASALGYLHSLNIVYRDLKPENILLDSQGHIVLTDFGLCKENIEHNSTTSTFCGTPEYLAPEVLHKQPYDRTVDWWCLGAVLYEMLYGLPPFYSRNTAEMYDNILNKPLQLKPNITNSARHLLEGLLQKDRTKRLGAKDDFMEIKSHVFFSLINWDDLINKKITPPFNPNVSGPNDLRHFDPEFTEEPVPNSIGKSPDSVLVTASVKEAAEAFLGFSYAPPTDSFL
Sequence of Rho-associated protein kinase 2 (Homo sapiens) (O75116 whole entry, looked up): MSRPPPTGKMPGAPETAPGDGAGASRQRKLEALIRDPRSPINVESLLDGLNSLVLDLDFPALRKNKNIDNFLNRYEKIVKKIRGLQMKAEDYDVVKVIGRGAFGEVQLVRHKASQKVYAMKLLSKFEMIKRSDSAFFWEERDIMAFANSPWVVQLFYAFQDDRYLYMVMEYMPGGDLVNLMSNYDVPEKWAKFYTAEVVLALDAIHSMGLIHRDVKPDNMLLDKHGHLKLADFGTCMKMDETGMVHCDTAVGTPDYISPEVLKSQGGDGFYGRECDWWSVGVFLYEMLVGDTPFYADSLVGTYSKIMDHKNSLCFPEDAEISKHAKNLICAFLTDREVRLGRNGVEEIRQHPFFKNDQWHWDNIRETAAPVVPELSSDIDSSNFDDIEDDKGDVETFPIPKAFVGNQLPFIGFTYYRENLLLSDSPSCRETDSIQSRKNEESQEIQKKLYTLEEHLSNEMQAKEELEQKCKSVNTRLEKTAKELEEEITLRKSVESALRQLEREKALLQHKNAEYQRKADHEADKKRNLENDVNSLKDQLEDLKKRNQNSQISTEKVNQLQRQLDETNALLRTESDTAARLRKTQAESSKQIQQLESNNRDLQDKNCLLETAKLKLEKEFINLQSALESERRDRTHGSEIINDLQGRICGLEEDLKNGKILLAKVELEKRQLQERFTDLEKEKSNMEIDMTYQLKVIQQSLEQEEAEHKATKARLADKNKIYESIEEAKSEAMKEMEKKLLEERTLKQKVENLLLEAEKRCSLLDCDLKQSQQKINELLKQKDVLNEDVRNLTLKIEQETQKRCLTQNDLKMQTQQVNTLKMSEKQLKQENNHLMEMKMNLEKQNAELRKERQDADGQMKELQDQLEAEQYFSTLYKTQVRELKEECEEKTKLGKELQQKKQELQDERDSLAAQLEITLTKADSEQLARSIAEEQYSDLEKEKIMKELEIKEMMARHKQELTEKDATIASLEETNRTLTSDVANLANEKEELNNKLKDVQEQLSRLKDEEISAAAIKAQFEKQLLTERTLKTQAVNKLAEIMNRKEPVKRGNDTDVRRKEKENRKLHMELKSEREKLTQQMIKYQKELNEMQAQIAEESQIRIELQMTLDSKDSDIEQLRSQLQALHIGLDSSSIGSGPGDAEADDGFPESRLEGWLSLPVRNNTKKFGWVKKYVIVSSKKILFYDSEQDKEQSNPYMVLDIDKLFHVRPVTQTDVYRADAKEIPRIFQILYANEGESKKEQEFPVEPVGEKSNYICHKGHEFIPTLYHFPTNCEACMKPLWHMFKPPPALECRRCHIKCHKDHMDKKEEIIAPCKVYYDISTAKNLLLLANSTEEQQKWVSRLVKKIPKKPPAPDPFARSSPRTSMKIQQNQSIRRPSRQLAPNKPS
Sequence of Serine/threonine-protein kinase 3 (Homo sapiens) (Q13188 whole entry): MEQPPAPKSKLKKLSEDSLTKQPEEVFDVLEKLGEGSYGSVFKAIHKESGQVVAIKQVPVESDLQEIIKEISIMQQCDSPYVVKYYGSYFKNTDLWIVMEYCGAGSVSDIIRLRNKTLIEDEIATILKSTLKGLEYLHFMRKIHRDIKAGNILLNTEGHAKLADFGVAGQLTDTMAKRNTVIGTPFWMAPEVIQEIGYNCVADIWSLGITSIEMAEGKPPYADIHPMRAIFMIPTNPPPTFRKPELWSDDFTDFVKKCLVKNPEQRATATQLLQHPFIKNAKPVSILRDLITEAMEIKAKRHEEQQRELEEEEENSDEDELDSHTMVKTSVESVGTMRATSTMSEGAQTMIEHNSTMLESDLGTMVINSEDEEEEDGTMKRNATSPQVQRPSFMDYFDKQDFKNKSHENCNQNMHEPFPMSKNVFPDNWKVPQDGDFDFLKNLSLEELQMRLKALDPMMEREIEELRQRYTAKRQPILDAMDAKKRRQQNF
Sequence of Tyrosine-protein kinase BTK (Homo sapiens) (Q06187 whole entry): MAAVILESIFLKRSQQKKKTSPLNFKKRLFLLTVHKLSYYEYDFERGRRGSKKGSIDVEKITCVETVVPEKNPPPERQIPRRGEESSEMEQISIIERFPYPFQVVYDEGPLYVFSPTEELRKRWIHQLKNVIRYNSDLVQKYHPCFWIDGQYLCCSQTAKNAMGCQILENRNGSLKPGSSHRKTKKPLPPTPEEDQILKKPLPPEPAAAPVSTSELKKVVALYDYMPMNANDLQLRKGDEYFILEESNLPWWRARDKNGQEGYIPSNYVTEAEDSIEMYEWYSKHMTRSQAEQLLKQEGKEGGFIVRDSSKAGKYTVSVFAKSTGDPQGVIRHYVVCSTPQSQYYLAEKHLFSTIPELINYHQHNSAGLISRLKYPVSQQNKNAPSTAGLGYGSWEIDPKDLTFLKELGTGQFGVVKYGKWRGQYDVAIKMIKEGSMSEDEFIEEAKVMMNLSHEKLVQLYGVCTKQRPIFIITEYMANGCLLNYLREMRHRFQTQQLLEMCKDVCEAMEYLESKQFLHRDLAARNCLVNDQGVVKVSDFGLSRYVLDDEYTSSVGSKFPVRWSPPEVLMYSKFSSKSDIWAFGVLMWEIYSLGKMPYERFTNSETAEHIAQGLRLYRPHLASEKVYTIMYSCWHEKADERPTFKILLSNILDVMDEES
Sequence of Protein kinase C beta type (Homo sapiens) (P05771 2-671 limits assumed): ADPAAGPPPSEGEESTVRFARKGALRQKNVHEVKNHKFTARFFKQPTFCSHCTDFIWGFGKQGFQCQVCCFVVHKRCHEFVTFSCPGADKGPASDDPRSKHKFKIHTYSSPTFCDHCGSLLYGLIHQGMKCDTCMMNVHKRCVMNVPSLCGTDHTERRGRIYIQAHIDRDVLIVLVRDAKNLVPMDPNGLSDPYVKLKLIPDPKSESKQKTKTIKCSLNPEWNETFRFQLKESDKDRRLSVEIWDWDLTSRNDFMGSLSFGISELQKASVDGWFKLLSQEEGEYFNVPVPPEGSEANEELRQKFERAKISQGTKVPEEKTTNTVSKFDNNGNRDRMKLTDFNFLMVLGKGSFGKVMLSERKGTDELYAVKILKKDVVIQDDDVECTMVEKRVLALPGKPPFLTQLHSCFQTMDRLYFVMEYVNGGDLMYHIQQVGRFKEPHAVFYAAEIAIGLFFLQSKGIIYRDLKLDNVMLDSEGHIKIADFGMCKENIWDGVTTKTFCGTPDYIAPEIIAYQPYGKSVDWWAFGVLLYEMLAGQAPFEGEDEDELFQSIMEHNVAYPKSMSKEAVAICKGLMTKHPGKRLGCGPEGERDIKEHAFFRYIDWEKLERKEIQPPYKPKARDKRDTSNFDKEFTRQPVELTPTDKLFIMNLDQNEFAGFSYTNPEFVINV
Sequence of Tyrosine-protein kinase ABL1 (Homo sapiens) (P00519 whole entry): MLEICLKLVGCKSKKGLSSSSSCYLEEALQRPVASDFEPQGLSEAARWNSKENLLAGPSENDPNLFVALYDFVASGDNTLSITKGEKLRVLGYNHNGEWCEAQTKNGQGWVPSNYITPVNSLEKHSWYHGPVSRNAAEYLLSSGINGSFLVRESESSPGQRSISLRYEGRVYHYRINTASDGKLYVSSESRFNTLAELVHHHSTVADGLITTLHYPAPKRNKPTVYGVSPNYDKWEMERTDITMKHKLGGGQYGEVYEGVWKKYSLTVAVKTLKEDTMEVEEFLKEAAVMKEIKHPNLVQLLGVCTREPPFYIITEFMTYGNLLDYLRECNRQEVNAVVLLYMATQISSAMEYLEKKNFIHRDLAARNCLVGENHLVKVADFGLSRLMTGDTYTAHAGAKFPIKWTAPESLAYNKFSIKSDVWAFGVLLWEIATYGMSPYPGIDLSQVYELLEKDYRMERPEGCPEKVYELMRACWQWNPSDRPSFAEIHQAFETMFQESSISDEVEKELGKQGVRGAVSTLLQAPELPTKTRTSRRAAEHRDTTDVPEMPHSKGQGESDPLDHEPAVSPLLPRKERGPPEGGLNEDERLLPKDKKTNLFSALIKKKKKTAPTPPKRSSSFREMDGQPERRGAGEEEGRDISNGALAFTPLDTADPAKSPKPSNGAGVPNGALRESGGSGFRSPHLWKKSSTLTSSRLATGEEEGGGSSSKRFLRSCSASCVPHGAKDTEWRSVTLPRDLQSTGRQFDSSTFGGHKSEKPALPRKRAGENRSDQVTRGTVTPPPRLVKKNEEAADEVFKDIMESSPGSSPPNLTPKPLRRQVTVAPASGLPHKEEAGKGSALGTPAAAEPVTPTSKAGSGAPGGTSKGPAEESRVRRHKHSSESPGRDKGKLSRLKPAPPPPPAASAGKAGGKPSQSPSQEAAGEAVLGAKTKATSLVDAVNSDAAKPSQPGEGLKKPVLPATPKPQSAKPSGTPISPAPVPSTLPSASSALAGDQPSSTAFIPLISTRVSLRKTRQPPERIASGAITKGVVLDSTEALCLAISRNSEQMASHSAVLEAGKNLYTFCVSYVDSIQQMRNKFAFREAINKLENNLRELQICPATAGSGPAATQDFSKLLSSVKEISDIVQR

CLint scaled [1]: 127 mL/min/kg
fraction unbound [2]: 0.038
Drug uptake(free) [3]: Bld
Cp(f) [4]: 70.9 nM
Drug uptake(free) [5]: 1.5 nM
inhibition [6]: 1%
inhibition [7]: -9%
inhibition [8]: -6%
inhibition [9]: 5%
inhibition [10]: -1%
inhibition [11]: -9%
inhibition [12]: -7%
inhibition [13]: -7%
inhibition [14]: -1%
inhibition [15]: -8%
inhibition [16]: 3%
inhibition [17]: -8%
inhibition [18]: -8%
inhibition [19]: 5%
inhibition [20]: 5%
inhibition [21]: 7%
inhibition [22]: 3%
inhibition [23]: -1%
inhibition [24]: 4%
Compound: Cn1cc(-c2n[nH]c3ccc(NCc4cc(F)ccc4S(C)(=O)=O)cc23)cn1
